{"source": "patent US20190262323A1", "about": "“COMPOSITIONS AND METHODS FOR TREATING NEURODEGENERATIVE DISORDERS” (GEORGETOWN UNIVERSITY, priority 2016, published 2019)", "key": {"[1]": {"experiment": "Pharmacokinetic analysis of brain and serum by mass spectrometry", "type": "in vivo, C57BL/6 mice", "description": "C57BL/6 mice received a single IP dose of 1.25, 2.5, 5, or 10 mg/kg LCB, and brain and serum were collected at 2, 4, 6, or 8 hours (n=3 per dose and time point). Animals injected with vehicle (DMSO) were used for background subtraction. Drug levels were determined at the Georgetown University Proteomics and Metabolomics Shared Resources (PMSR). Stock solution for LCB-03110 [(approximately 1 mg/mL each) was prepared in methanol/dichloromethane (50:50). The serial dilutions for each of the standards were produced for the study separately in methanol/HPLC grade water (50:50). Preparation of the calibration curve standards and quality samples (QC) was performed by mixing the stock solutions in blank samples. The final calibration concentration for LCB-03110 ranged from 0.1 ng/mL to 100 ng/mL. The QC concentrations were 30 ng/mL, 3 ng/mL and 0.3 ng/mL, respectively. Serum and brain samples were stored at −80° C. and then thawed to room temperature prior to preparation. The thawed serum samples (20 μL) were transfused to a tube containing 100 μL of water. The 500 μL extraction solvent and acetonitrile/methanol (50:50) was added to the sample. The mixture was vortexed and incubated on ice for 20 minutes to accelerate protein precipitation. After incubation, the samples were vortexed again and centrifuged at 13,000 rpm for 20 minutes at 4° C. The supernatant was then collected and transferred to a new tube, was dried using speed vac, and reconstituted in 200 μL of methanol/water (50:50). The mixture was spun again at 13,000 rpm for 20 minutes at 4° C. The supernatant was then collected into a mass spec sample tube cap and run in the mass spectrometer. For brain, a small section of the thawed brain sample from each animal was transferred to a flat bottom tube. 200 μL of methanol/water (90:10) was added, and the tissue was homogenized. Acetonitrile was then added to the mixture facilitating protein precipitation. The mixture was then incubated on ice for 10 minutes. After incubation, the samples were vortexed and centrifuged at 13,000 rpm for 20 minutes at 4° C. The supernatant was then collected and transferred to a new tube, dried using speed vac, and reconstituted in 200 μL of methanol/water (50:50). The mixture was centrifuged at 13,000 rpm for 20 minutes at 4° C. The supernatant was collected into a mass spec sample tube cap and run in the mass spectrometer. The samples were resolved on an Acquity UPLC BEH C18 […], 2.1×50 mm column online with a triple quadrupole mass spectrometer (Xevo-TQ-S, Waters Corporation, USA) operating in the multiple reaction monitoring (MRM) mode. The sample cone voltage and collision energies were optimized for both analytes to obtain maximum ion intensity for parent and daughter ions using “Intelli Start” feature of MassLynx software (Waters Corporation, USA). The instrument parameters were optimized to gain maximum specificity and sensitivity of ionization for the parent [m/z=438.25] and daughter ions [m/z=357.33]. Signal intensities from all MRM Q1/Q3 ion pairs for analytes were ranked to ensure selection of the most intense precursor and fragment ion pair for MRM-based quantitation. […] Analysis was performed with a six to eight-point calibration curve, the sample queue was randomized and solvent blanks were injected to assess sample carryover. MRM data were processed using TargetLynx 4.1. The relative quantification values of analytes were determined by calculating the ratio of peak areas of transitions of samples normalized to the peak area of the internal standard."}, "[2]": {"tested_on": "phosphorylated mTOR", "experiment": "MILLIPLEX Akt/mTOR phosphoprotein analysis", "type": "in vivo, transgenic APP mice", "conditions": "mean fluorescent intensity; 1.25 or 2.5 mg/kg", "description": "Transgenic mice harboring the Swedish, Dutch, and Iowa mutation for human amyloid beta-precursor protein were treated with intraperitoneal (IP) injections of 10 mg/kg, 5 mg/kg, 2.5 mg/kg, 1.25 mg/kg of LCB 03-0110 or 30 μL of dimethylsulfoxide (DMSO) every day for 1 week. LCB 03-0110 is a potent inhibitor of discoidin domain receptor 2 (DDR2) family tyrosine kinases. All animal experiments were conducted in full compliance with the recommendations of Georgetown University Animal Care and Use Committee (GUAUC). Fifteen mice were used for brain and blood extractions, and fifteen mice were used for drug treatments. Four transgenic APP mice were treated with DMSO, four transgenic APP mice were treated with 10 mg/kg of LCB 03-0110, four transgenic APP mice were treated with 5 mg/kg of LCB 03-0110, four transgenic APP mice were treated with 2.5 mg/kg of LCB 03-0110, and three transgenic APP mice were treated with 1.25 mg/kg of LCB 03-0110. […]\nMILLIPLEX®: Cytokines and chemokines were measured in serum and brain with the Mouse Cytokine/Chemokine Magnetic Bead Panel (Cat MCYTOMAG-70K, EMD Millipore). Human amyloid beta and total tau was measured in brain using the Human Amyloid Beta and Tau Panel (Cat HNABTMAG-68K, EMD Millipore). AKT/mTOR signaling cascade phosphoproteins were measured using the Akt/mTOR Phosphoprotein Magnetic Bread 11-Plex Kit (Cat 48-611MAG, EMD Millipore). […]"}, "[3]": {"tested_on": "beta-amyloid, synuclein and Tau", "experiment": "LCB-03-0110 tested in cell culture: levels of misfolded proteins", "type": "cell-based", "conditions": "low doses (0.1-3 nM)", "description": "shRNAs were designed to specifically knock down DDR1 and DDR2 receptors, and study their effects on clearance of misfolded protein accumulation in neurodegeneration. […] These shRNAs were then injected into animal models in vivo. […] A known DDR inhibitor, LCB-03-0110, was tested in cell culture. Low doses (0.1-3 nM) of LCB-03-0110 reduced the levels of beta-amyloid, synuclein and Tau in cell culture."}, "[4]": {"tested_on": "Beclin, Atg7, Atg12, LC3-I, LC3-II", "experiment": "Western blot of soluble brain fractions of treated APP mice: autophagy markers", "type": "in vivo, transgenic APP mice", "conditions": "1.25 or 2.5 mg/kg", "description": "(§1) Transgenic mice harboring the Swedish, Dutch, and Iowa mutation for human amyloid beta-precursor protein were treated with intraperitoneal (IP) injections of 10 mg/kg, 5 mg/kg, 2.5 mg/kg, 1.25 mg/kg of LCB 03-0110 or 30 μL of dimethylsulfoxide (DMSO) every day for 1 week. LCB 03-0110 is a potent inhibitor of discoidin domain receptor 2 (DDR2) family tyrosine kinases. All animal experiments were conducted in full compliance with the recommendations of Georgetown University Animal Care and Use Committee (GUAUC). Fifteen mice were used for brain and blood extractions, and fifteen mice were used for drug treatments. Four transgenic APP mice were treated with DMSO, four transgenic APP mice were treated with 10 mg/kg of LCB 03-0110, four transgenic APP mice were treated with 5 mg/kg of LCB 03-0110, four transgenic APP mice were treated with 2.5 mg/kg of LCB 03-0110, and three transgenic APP mice were treated with 1.25 mg/kg of LCB 03-0110. Seven transgenic APP mice were treated with DMSO, and 7 transgenic APP mice were treated with 2.5 mg/kg of LCB.\nBrain tissues from transgenic APP mice treated with LCB 03-0110 at 10 mg/kg, 5 mg/kg, 2.5 mg/kg, and 1.25 mg/kg were homogenized in 1×STEN buffer, centrifuged at 10,000×g for 20 min at 4° C., and the supernatants containing the soluble fraction were collected. […]"}, "[5]": {"tested_on": "APP/Aβ, Aβ42, p-tau (AT180)", "experiment": "Western blot of soluble brain fractions of treated APP mice: amyloid and p-tau", "type": "in vivo, transgenic APP mice", "description": "as §1\nBrain tissues from transgenic APP mice treated with LCB 03-0110 at 10 mg/kg, 5 mg/kg, 2.5 mg/kg, and 1.25 mg/kg were homogenized in 1×STEN buffer, centrifuged at 10,000×g for 20 min at 4° C., and the supernatants containing the soluble fraction were collected. Soluble fractions were probed with mouse monoclonal anti-6E10 (1:1000), rabbit polyclonal anti-Ab42 (1:1000), mouse monoclonal anti-AT180 (1:1000), rabbit polyclonal anti-Beclin-1 (1:1000), rabbit polyclonal anti-Atg7 (1:1000), rabbit polyclonal anti-Atg12 (1:1000), rabbit polyclonal anti-LC3B (1:1000) and rabbit polyclonal anti-actin (1:1000)."}, "[6]": {"conditions": "brain response values (Area/IS Area), single IP dose"}}}
{"compound": "Oc1cccc(Nc2ccnc3cc(-c4cccc(CN5CCOCC5)c4)sc23)c1", "note": "[LCB 03-0110, 3-(2-(3-(morpholinomethyl)phenyl)thieno[3,2-b]pyridine-7-ylamino)phenol]", "values": [{"measurement": "Tmax of the plasma:brain ratio", "setting": "[1]; 2.5 mg/kg", "result": "about 2 hours"}, {"measurement": "plasma:brain ratio, comparison of doses", "setting": "[1]; 2.5 mg/kg, among 10, 5, 2.5 and 1.25 mg/kg", "result": "highest plasma:brain ratio"}, {"measurement": "drug concentration in the brain, comparison of doses", "setting": "[1]; 10 mg/kg, among 10, 5, 2.5 and 1.25 mg/kg", "result": "highest drug concentration in the brain"}, {"measurement": "time at which washed out completely from the brain", "setting": "[1]; [6]", "result": "about 4 hours"}, {"measurement": "time of peak in the brain", "setting": "[1]; [6]", "result": "about 1 hour"}, {"measurement": "blood brain barrier penetration", "setting": "[1]; single IP dose 1.25, 2.5, 5 or 10 mg/kg", "result": "penetrates the blood brain barrier"}, {"measurement": "phosphorylated mTOR levels", "setting": "[2]", "result": "without altering"}, {"measurement": "levels of Tau", "setting": "[3]", "result": "reduced"}, {"measurement": "levels of beta-amyloid", "setting": "[3]", "result": "reduced"}, {"measurement": "levels of synuclein", "setting": "[3]", "result": "reduced"}, {"measurement": "autophagy and autophagosomes (Beclin, Atg7, Atg12, LC3-I, LC3-II Western blot)", "setting": "[4]", "result": "stimulates autophagy and clears autophagosomes"}, {"measurement": "level of LC3-II/LC3-I, densitometry analysis of LC3-II levels", "setting": "[4]; n=5", "result": "significantly reduces"}, {"measurement": "levels of p-tau (AT180) (Western blot)", "setting": "[5]; 1.25 or 2.5 mg/kg daily, after one week", "result": "reduced"}, {"measurement": "levels of APP/Aβ (Western blot)", "setting": "[5]; 1.25 or 2.5 mg/kg daily, after one week, actin loading control", "result": "reduced"}, {"measurement": "levels of amyloid, densitometry analysis", "setting": "[5]; n=5, 3 mutant APP mice, about 2.5 mg/kg or less", "result": "significantly reduced"}, {"measurement": "beta-amyloid (Aβ42) levels (Western blot)", "setting": "[5]; soluble brain fraction, 1.25 or 2.5 mg/kg daily, one week", "result": "effective in reducing"}]}
